Measurements reported in patent publication US8946248B2, “HIV inhibiting 5-substituted pyrimidines” (priority 2004, dated 2015).

What was measured:
[1] = tested on: Strain B, mutation K103N in HIV reverse transcriptase; assay: Antiviral activity, cellular assay, strain B; assay type: cell-based; details: for pEC50 B: HIV strain with RT mutation K103N, cellular assay
Experimental: (§1) Because of the increasing emergence of drug resistant HIV strains, the present compounds were tested for their potency against clinically isolated HIV strains harboring several mutations. These mutations are associated with resistance to reverse transcriptase inhibitors and result in viruses that show various degrees of phenotypic cross-resistance to the currently commercially available drugs such as for instance AZT and delavirdine.
(§2) The antiviral activity of the compound of the present invention has been evaluated in the presence of wild type HIV and HIV mutants bearing mutations at the reverse transcriptase gene. The activity of the compounds is evaluated using a cellular assay and the residual activity is expressed in pEC50 values. The columns IIIB and A-G in the table list the pEC50 values against various strains IIIB, A-G.
Strain B contains mutation K103N in HIV reverse transcriptase, […]

[2] = tested on: Strain C, mutation L100I in HIV reverse transcriptase; assay: Antiviral activity, cellular assay, strain C; assay type: cell-based; details: for pEC50 C: HIV strain with RT mutation L100I, cellular assay
Experimental: as §1, §2
Strain C contains mutation L100I in HIV reverse transcriptase, […]

[3] = tested on: Strain IIIB, wild type HIV-LAI strain; assay: Antiviral activity, cellular assay, strain IIIB; assay type: cell-based
Experimental: as §1, §2
Strain IIIB is wild type HIV-LAI strain

[4] = tested on: Strain F, mutations K103N and Y181C in HIV reverse transcriptase; assay: microbe, parasite or virus in culture; assay type: cell-based; details: for pEC50 F: HIV strain with RT mutations K103N and Y181C, cellular assay
[5] = tested on: Strain D, mutation Y188L in HIV reverse transcriptase; assay: Antiviral activity, cellular assay, strain D; assay type: cell-based; details: for pEC50 D: HIV strain with RT mutation Y188L, cellular assay
Experimental: as §1, §2
Strain D contains mutation Y188L in HIV reverse transcriptase, […]

[6] = tested on: Strain E, mutations L100I and K103N in HIV reverse transcriptase; assay: Antiviral activity, cellular assay, strain E; assay type: cell-based; details: for pEC50 E: HIV strain with RT mutations L100I and K103N, cellular assay
Experimental: as §1, §2
Strain E contains mutations L100I and K103N in HIV reverse transcriptase, […]

[7] = Antiviral activity, cellular assay, strain G; assay type: cell-based, HIV; details: Human immunodeficiency virus 1, read-out: pEC50 G (converted)
Experimental: as §1, §2

[8] = tested on: Strain A, mutation Y181C in HIV reverse transcriptase; assay: Antiviral activity, cellular assay, strain A; assay type: cell-based; details: for pEC50 A: HIV strain with RT mutation Y181C, cellular assay
Experimental: as §1, §2
Strain A contains mutation Y181C in HIV reverse transcriptase, […]

[9] = tested on: Strain G, mutations L100I, K103N, Y181C, V179I, Y181C, E138G, V179I, L2214F, V278V/1 and A327A/V in HIV reverse transcriptase; assay: Antiviral activity, cellular assay, strain G; assay type: cell-based; details: HIV strain with RT mutations L100I, K103N, Y181C, V179I, E138G, L2214F, V278V/1 and A327A/V; cellular assay
Experimental: as §1, §2

Q: For `Cc1cc(/C=C/C#N)cc(C)c1Nc1nc(Nc2ccc(C#N)cc2)ncc1Br`, which melting point is on record?
A: > 250 °C

Q: With `Cc1cc(/C=C/C#N)cc(C)c1Nc1nc(Nc2ccc(C#N)cc2)ncc1C(=O)O` as the compound, how does the melting point read?
A: > 250 °C

Q: For `Cc1cc(/C=C/C#N)cc(C)c1Nc1nc(Nc2ccc(C#N)cc2)ncc1C(N)=O`, which melting point is on record?
A: > 250 °C

Q: Which melting point does the source give for `CC(=O)Nc1cnc(Nc2ccc(C#N)cc2)nc1Nc1c(C)cc(/C=C/C#N)cc1C` here?
A: > 250 °C

Q: Which melting point does the source give for `N#C/C=C/c1cc(F)c(Nc2nc(Nc3ccc(C#N)cc3)ncc2Br)c(Cl)c1` here?
A: 236 °C

Q: Which melting point does the source give for `Cc1cc(/C=C/C#N)cc(C)c1Nc1nc(Nc2ccc(C#N)cc2)ncc1[N+](=O)[O-]` here?
A: > 250 °C

Q: Which melting point does the source give for `Cc1cc(/C=C/C#N)cc(C)c1Nc1nc(Nc2ccc(C#N)cc2)ncc1N` here?
A: > 250 °C

Q: For `N#C/C=C/c1cc(F)c(Nc2nc(Nc3ccc(C#N)cc3)ncc2[N+](=O)[O-])c(Cl)c1`, which melting point is on record?
A: > 250 °C

Q: Which melting point does the source give for `N#C/C=C/c1cc(F)c(Nc2nc(Nc3ccc(C#N)cc3)ncc2N)c(Cl)c1` here?
A: > 250 °C

Q: What does the source list for `Cc1cc(/C=C/C#N)cc(C)c1Nc1nc(Nc2ccc(C#N)cc2)ncc1NC=O` [Compound 13]?
A: EC50 ([1]; Human immunodeficiency virus 1, read-out: pEC50 B (converted)): 0.631 nM; EC50 ([2]; Human immunodeficiency virus 1, read-out: pEC50 C (converted)): 0.631 nM; EC50 ([3]; Human immunodeficiency virus 1, IIIB): 0.398 nM; EC50 ([4]; Human immunodeficiency virus 1, read-out: pEC50 F (converted)): 3.98 nM; EC50 ([5]; Human immunodeficiency virus 1, read-out: pEC50 D (converted)): 3.16 nM; EC50 ([6]; Human immunodeficiency virus 1, read-out: pEC50 E (converted)): 6.31 nM; EC50 [7]: 1000 nM; EC50 ([8]; Human immunodeficiency virus 1, read-out: pEC50 A (converted)): 2.51 nM

Q: With `Cc1cc(CCC#N)cc(C)c1Nc1nc(Nc2ccc(C#N)cc2)ncc1C(N)=O` [Compound 26] as the compound, how does the “pEC50 B” value [1] read?
A: 9.7

Q: And the “pEC50 C” value [2]?
A: 10

Q: And the “pEC50 IIIB” value [3]?
A: 9.7

Q: And the “pEC50 F” value [4]?
A: 9.2

Q: What about the “pEC50 D” value [5] of the same compound?
A: 8.6

Q: What about the “pEC50 E” value [6] of the same compound?
A: 9.2

Q: And the “pEC50 G” value [9]?
A: 6.4

Q: What about the “pEC50 A” value [8] of the same compound?
A: 9

Q: What does the source list for `CC(=O)Nc1cnc(Nc2ccc(C#N)cc2)nc1Nc1c(F)cc(/C=C/C#N)cc1Cl` [Compound 28]?
A: pEC50 B [1]: 8.6; pEC50 C [2]: 8.3; pEC50 IIIB [3]: 8.8; pEC50 F [4]: 7.3; pEC50 D [5]: 7.3; pEC50 E [6]: 7; pEC50 G [9]: 4.7; pEC50 A [8]: 7.9

Q: What does the source list for `CCON=Cc1cnc(Nc2ccc(C#N)cc2)nc1Nc1c(C)cc(/C=C/C#N)cc1C` [Compound 31]?
A: pEC50 B [1]: 8.5; pEC50 C [2]: 8.5; pEC50 IIIB [3]: 8.5; pEC50 F [4]: 8.2; pEC50 D [5]: 8.2; pEC50 E [6]: 8.2; pEC50 G [9]: 5.1; pEC50 A [8]: 8.2

Q: Which results are given for `CON=Cc1cnc(Nc2ccc(C#N)cc2)nc1Nc1c(C)cc(/C=C/C#N)cc1C` [Compound 32]?
A: pEC50 B [1]: 8.7; pEC50 C [2]: 9.3; pEC50 IIIB [3]: 8.5; pEC50 F [4]: 8.7; pEC50 D [5]: 8.6; pEC50 E [6]: 8.6; pEC50 G [9]: 6; pEC50 A [8]: 8.5
